Data: US12516056B2, “Compounds for inhibition of janus kinase 1” (MANKIND PHARMA LTD., priority 2019, dated 2026)
Like-named read-outs stand apart in the source and are kept apart here. Blank lines part the entries; values can stand above or below the compound they belong to.

Legend:
[1] = test system: STAT3 phosphorylation by IL-6 in TF-1 cells; test: JAK cellular assay: STAT3 phosphorylation by IL-6 in TF-1 cells (HTRF); assay type: cell-based; details: Homo sapiens
Method in brief: (§1)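 TF-1 cells starved overnight in low-serum OptiMEM, then 120,000/well in RPMI, preincubated with compound 30 min at 37 °C (0.2% DMSO final). Stimulation 20 min with IL-6 30 ng/ml (pSTAT3) or GMCSF 5 ng/ml (pSTAT5); lysate phospho-STAT by HTRF, unstimulated background subtracted.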

[2] = test system: STAT5 phosphorylation by IL-2 in HT-2 cells; test: STAT5 phosphorylation by IL-2 in HT-2 cells (HTRF); assay type: cell-based
Method in brief: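 Starved HT-2 cells (120,000/well) were preincubated 30 min at 37 °C with compound (0.2% DMSO), then stimulated 20 min with human IL-2 (50 U/ml). pSTAT5 in lysates measured by HTRF, with unstimulated-cell background subtracted.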

[3] = test system: STAT5 phosphorylation by GMCSF in TF-1 cells; test: JAK cellular assay: STAT5 phosphorylation by GMCSF in TF-1 cells (HTRF); assay type: cell-based; details: Homo sapiens
Method in brief: as §1

[4] = biological target: T1, Recombinant JAK1 (Homo sapiens, UniProt P23458); test: JAK biochemical assay (LANCE Ultra TR-FRET), JAK1
T1 construct: purchased Carna Biosciences
T1 sequence (P23458 whole entry): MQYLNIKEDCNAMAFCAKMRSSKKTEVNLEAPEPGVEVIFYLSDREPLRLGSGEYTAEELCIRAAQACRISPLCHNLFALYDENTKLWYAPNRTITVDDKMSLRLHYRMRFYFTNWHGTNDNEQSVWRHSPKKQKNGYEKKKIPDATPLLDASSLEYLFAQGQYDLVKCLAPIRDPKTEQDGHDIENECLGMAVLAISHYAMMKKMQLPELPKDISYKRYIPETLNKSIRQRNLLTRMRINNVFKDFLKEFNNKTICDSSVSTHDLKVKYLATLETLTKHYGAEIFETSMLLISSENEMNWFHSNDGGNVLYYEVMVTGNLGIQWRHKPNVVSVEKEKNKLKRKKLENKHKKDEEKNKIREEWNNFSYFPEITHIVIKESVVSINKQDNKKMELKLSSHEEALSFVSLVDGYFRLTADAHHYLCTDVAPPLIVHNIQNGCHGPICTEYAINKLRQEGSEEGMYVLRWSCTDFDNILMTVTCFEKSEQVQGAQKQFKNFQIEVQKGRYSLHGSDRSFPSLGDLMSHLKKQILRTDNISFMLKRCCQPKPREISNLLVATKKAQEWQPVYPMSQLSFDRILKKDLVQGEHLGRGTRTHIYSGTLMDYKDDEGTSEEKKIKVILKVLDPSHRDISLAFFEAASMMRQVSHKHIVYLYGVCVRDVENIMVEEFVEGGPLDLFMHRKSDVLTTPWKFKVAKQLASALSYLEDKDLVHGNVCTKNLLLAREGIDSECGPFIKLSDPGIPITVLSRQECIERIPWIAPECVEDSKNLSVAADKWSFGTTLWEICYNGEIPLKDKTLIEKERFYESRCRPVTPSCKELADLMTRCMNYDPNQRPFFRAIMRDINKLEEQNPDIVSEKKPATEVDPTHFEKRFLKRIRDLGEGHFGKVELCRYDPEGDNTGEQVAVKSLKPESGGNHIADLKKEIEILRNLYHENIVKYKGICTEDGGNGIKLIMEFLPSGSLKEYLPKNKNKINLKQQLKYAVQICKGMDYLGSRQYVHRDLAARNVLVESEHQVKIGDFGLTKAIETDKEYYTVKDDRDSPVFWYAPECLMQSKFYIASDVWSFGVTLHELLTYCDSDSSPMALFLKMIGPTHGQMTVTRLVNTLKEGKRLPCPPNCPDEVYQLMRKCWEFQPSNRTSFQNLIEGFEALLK
Method in brief: (§2)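 % inhibition relative to vehicle was derived from TR-FRET signal proportional to ULight-substrate phosphorylation. Reactions used recombinant kinase in HEPES pH 7.5 buffer containing EGTA, MgCl2, DTT and Tween-20.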

[5] = biological target: T2, Recombinant JAK2 (Homo sapiens, UniProt O60674); test: JAK biochemical assay (LANCE Ultra TR-FRET), JAK2; details: read-out: Biochemical IC50 (nM) JAK2
T2 construct: purchased Carna Biosciences
T2 sequence (O60674 whole entry): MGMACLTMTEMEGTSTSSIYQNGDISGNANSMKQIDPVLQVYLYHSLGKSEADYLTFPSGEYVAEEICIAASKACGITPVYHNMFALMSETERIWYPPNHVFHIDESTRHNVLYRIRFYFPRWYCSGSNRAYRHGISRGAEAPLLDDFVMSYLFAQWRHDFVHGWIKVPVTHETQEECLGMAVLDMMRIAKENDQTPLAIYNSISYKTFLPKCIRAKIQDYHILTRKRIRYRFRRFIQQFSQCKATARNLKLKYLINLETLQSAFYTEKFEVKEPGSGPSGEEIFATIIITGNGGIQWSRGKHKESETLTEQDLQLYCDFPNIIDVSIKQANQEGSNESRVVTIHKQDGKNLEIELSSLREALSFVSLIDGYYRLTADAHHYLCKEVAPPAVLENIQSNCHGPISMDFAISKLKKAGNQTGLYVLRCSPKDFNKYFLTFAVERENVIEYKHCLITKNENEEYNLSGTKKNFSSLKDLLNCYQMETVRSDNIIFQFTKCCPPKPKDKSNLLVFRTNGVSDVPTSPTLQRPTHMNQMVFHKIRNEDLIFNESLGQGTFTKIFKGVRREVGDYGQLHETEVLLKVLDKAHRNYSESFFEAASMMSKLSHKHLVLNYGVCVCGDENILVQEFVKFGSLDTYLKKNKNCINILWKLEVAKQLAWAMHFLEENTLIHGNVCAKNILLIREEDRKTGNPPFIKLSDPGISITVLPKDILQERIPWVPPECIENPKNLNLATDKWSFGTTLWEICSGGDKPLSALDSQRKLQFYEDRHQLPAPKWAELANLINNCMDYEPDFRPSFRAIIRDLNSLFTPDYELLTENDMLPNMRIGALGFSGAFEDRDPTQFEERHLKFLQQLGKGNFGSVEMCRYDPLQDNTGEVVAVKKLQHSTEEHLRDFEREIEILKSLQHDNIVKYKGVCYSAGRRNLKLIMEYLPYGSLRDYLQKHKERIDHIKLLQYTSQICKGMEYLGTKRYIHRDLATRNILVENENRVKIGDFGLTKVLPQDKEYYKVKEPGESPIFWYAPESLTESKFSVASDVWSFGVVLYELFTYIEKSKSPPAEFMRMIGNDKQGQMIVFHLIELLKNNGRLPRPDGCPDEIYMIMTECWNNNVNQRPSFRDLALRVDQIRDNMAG
Method in brief: as §2

[6] = test system: collagen induced mouse arthritis model; test: Mouse model of rheumatoid arthritis (collagen induced arthritis); assay type: in vivo; details: orally dosed, QD for 21 days; reference filgotinib
Excerpt: Rheumatoid arthritis (RA) is an autoimmune disease that can cause joint pain and damage throughout the body. Several cytokines such as IL-6 and IFN-γ activate the Janus kinase/signal transducers and activators of transcription (JAK/STAT) pathway. Inhibition of JAK/STAT pathway is considered as one of the therapeutic options for treatment of rheumatoid arthritis. Rodent models of arthritis can be used to evaluate the therapeutic potential of compounds dosed preventatively or therapeutically. These models include but are not limited to mouse or rat collagen-induced arthritis, rat adjuvant-induced arthritis, and collagen antibody-induced arthritis.
Compounds described herein are tested for JAK/STAT pathway inhibition driven efficacy in collagen induced mouse arthritis model. Compounds were orally dosed, QD for 21 days and at the end of the study, clinical symptoms, body weight and histopathology of ankle and paws were measured. Arthritis score was calculated for the compounds as well as reference standard, filgotinib.

[7] = biological target: T3, Recombinant TYK2 (Homo sapiens, UniProt P29597); test: JAK biochemical assay (LANCE Ultra TR-FRET), TYK2
T3 construct: purchased Carna Biosciences
T3 sequence (P29597 whole entry): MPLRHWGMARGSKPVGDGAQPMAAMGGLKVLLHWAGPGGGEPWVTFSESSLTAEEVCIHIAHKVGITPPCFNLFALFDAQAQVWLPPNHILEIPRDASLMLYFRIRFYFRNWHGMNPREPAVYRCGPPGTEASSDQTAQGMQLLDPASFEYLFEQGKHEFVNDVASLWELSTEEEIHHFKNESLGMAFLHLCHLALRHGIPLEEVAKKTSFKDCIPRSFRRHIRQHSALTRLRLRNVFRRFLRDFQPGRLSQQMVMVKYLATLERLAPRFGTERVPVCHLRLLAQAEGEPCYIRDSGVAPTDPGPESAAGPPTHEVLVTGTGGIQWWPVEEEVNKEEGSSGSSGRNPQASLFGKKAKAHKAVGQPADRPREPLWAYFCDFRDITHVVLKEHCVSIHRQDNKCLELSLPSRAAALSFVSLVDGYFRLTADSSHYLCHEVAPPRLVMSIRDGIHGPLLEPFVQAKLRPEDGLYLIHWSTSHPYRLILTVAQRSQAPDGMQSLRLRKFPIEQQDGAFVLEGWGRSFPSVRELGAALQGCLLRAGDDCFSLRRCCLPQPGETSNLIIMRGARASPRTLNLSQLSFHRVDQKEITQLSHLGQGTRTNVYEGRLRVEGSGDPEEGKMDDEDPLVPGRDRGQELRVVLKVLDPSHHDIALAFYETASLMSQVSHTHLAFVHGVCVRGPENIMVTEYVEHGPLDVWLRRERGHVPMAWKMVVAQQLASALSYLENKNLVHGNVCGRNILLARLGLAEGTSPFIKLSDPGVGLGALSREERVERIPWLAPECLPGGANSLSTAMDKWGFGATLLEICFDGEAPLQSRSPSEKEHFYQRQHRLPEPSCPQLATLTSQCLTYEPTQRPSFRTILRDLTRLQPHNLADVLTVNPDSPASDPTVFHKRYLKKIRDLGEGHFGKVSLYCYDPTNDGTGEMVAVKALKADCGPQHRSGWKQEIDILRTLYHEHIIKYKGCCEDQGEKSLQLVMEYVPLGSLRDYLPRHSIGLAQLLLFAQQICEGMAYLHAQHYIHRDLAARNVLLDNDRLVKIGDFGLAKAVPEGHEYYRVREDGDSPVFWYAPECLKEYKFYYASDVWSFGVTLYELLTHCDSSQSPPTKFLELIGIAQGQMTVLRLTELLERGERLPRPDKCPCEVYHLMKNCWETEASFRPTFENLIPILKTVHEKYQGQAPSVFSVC
Method in brief: as §2

[8] = test system: IFN-γ production in NK 92 cells by IL-12; test: IFN-γ production in NK 92 cells by IL-12 (ELISA); details: NK92, IFN-γ detection from cell supernatants, read-out: Cell based IC50 (μM) NK-92/IL-12*
Protocol: NK 92 cells were cultured in medium without IL-2 for overnight. Next day, 5000 cells per well NK 92 cells were seeded in a 96 well plate. Compounds were added to cells and incubated for 1 hour. Later IL-12, 10 U/ml was added to cells and incubated for overnight. Supernatant was collected from the wells and IFN-7 secretion was measured by using human IFN-7 ELISA kit. Absorbance was measured at 450 nm in BMG FLUOstar. Background signal obtained from cells which were not activated with cytokines, was subtracted from vehicle controls and compound treated wells.

[9] = biological target: T4, Recombinant JAK3 (Homo sapiens, UniProt P52333); test: JAK biochemical assay (LANCE Ultra TR-FRET), JAK3
T4 construct: purchased Carna Biosciences
T4 sequence (P52333 1-1124): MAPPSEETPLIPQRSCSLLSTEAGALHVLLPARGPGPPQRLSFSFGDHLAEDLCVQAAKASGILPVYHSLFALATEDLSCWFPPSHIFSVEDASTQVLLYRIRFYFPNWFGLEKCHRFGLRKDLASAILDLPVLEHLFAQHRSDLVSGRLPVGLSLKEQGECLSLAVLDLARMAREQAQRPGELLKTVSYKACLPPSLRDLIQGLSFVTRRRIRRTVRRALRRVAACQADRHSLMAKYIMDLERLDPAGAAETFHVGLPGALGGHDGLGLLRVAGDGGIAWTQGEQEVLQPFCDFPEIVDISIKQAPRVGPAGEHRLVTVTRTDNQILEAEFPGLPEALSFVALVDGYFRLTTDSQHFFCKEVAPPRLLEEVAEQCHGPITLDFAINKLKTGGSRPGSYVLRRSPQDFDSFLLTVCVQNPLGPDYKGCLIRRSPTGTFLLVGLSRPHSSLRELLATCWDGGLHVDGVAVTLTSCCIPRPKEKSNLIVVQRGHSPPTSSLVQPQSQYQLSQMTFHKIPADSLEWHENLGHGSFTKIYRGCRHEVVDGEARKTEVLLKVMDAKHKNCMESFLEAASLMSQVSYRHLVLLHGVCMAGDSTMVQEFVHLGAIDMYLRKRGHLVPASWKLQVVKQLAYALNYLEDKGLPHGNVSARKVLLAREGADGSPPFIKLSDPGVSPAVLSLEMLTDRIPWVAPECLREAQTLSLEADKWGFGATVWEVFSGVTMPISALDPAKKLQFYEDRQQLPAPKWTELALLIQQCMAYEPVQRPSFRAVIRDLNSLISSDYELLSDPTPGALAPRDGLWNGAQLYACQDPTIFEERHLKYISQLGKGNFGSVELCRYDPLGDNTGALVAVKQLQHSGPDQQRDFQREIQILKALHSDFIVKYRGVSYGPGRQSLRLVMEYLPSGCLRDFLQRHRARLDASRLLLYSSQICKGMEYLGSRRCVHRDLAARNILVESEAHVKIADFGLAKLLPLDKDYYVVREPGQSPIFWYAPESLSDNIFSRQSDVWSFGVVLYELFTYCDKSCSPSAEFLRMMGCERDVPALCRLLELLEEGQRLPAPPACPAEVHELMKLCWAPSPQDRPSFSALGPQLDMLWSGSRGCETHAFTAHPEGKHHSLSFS
Method in brief: as §2

[10] = test system: Imiquimod induced dermatitis in mice; test: Mouse model of Imiquimod induced psoriasis; assay type: in vivo, Female BALB/c mice; details: 3% topical, QD; IMQ induced psoriasis, mice
Protocol: Imiquimod (IMQ) induced dermatitis closely resembles human psoriasis lesions not only with regard to phenotypic and histological characteristics but also in the development of the lesions. IMQ is a ligand for toll-like receptor 7 (TLR7) and TLR8, and is a potent immune activator. […] Migration of activated dermal dendritic cells to lymph nodes in skin triggers a sequence of events leading to late phase of psoriasis. Compounds described herein are tested for JAK inhibition driven efficacy in Imiquimod induced dermatitis in mice.
Female BALB/c mice were topically dosed with 3% cream formulation containing test compounds. After four hours of test compound administration, 5% Imiquimod was applied on back skin and right ear for five days. On day 6, post dosing with test compounds, the severity of psoriasis was monitored and graded following Psoriasis Area and Severity Index (PASI). Efficacies of the compounds were evaluated based on PASI score. Redness, thickness and scaling of back skin and ear were assessed among the groups for scoring.

- IC50 ([1]; TF-1, TF-1 cells, IL-6 30 ng/ml, pSTAT3 HTRF, read-out: Cell Based Assay (μM) TF-1/IL-6/pSTAT3): > 0.5 µM
- IC50 ([1]; TF-1, TF-1 cells, IL-6 stimulation, read-out: Cell based IC50 (μM) TF-1/IL-6): 0.35 µM
- IC50 ([2]; HT2, HT-2 cells, IL-2 50 U/ml, pSTAT5 HTRF, read-out: Cell Based Assay (μM) HT-2/IL-2/pSTAT5): > 1 µM
- IC50 ([2]; HT2, HT-2 cells, IL-2 stimulation, read-out: Cell based IC50 (μM) HT-2/IL-2): 0.9 µM
- IC50 ([3]; TF-1 cells, GM-CSF stimulation, read-out: Cell based IC50 (μM) TF-1/GM-CSF): > 10 µM
- IC50 ([3]; TF-1 cells, GMCSF 5 ng/ml, pSTAT5 HTRF, read-out: Cell Based Assay (μM) TF-1/GMCSF/pSTAT5): > 1 µM
- IC50 ([4]; read-out: Biochemical IC50 (nM) JAK1): 15 nM
- IC50 ([4]; recombinant JAK1, TR-FRET, read-out: Biochemical Assay (μM) JAK1): < 100 nM
- IC50 [5]: 105 nM
- IC50 ([7]; read-out: Biochemical IC50 (nM) TYK2): > 1 nM
- IC50 ([7]; recombinant TYK2, TR-FRET, read-out: Biochemical Assay (μM) TYK2): > 1000 nM
- IC50 [8]: > 10 µM
- IC50 ([9]; read-out: Biochemical IC50 (nM) JAK3): 42 nM
- IC50 ([9]; recombinant JAK3, TR-FRET, read-out: Biochemical Assay (μM) JAK3): < 100 nM
Structure (SMILES): CS(=O)(=O)CC[C@@H](c1ccc(-n2cc(-c3ccnc4[nH]cnc34)cn2)nc1)C(F)(F)F [Example 1181, 7-(1-(5-((S)-1,1,1-trifluoro-4-(methylsulfonyl)butan-2-yl)pyridin-2-yl)-1H-pyrazol-4-yl)-3H-imidazo[4,5-b]pyridine]
- efficacy (arthritis score) in collagen induced mouse arthritis model [6]: very good efficacy

- IC50 ([1]; TF-1, read-out: Cell based IC50 (μM) TF-1/IL-6): 0.6 µM
- IC50 ([2]; HT2, read-out: Cell based IC50 (μM) HT-2/IL-2): 0.95 µM
- IC50 ([3]; TF-1, read-out: Cell based IC50 (μM) TF-1/GM-CSF): 3.4 µM
- IC50 [8]: > 10 µM
Structure (SMILES): O=C(Nc1nc2cccc(-c3ccc(CN4CCS(=O)(=O)CC4)cc3)n2n1)C1CC1 [Filgotinib, filgotinib, reference compound]
- back skin thickness [10]: significant decrease
- cumulative psoriasis score compared to vehicle [10]: statistically significant decrease
- ear thickness [10]: significant decrease
